Test results taken from ChEMBL document CHEMBL5579840, “Optimization of diastereomeric dihydropyridines as antimalarials” (Eur J Med Chem, 2024).
The source made the active and inactive calls. No cut-off for these calls is given here.

Key:
[1] = test system: Plasmodium falciparum; test: Antiplasmodial activity against chloroquine-sensitive Plasmodium falciparum 3D7; format: functional, organism-based
[2] = test system: Plasmodium falciparum; test: Antimalarial activity against Plasmodium falciparum W2 infected in RBC assessed as inhibition of growth incubated for 22 days by YOYO1 staining based LSR II flow cytometer; format: functional, organism-based; settings: W2, Erythrocyte, 528 h
[3] = test system: Plasmodium falciparum; test: Antimalarial activity against Plasmodium falciparum W2 infected in RBC assessed as parasitemia at 700 nM measured on day 4 by microscopic analysis relative to control; format: functional; settings: time 4 day
[4] = test system: Plasmodium falciparum; test: Antimalarial activity against Plasmodium falciparum W2 infected in RBC assessed as inhibition of parasite growth incubated for 72 hrs by YOYO1 staining based LSR II flow cytometer; format: functional, organism-based; settings: W2, Erythrocyte
[5] = test system: Plasmodium falciparum; test: Antimalarial activity against Plasmodium falciparum W2 infected in RBC assessed as reduction in parasitemia at 700 nM measured immediately by YOYO1 staining based LSR II flow cytometer; format: functional, organism-based
[6] = test system: Plasmodium falciparum; test: Fold resistance, ratio of EC50 for antiplasmodial activity against Plasmodium falciparum W2 infected in RBC assessed as inhibition of parasite growth incubated for 22 days to EC50 for antiplasmodial activity against Plasmodium falciparum W2 infected in RBC assessed as inhibition of parasite growth incubated for 72 hrs; format: functional
[7] = test system: Plasmodium falciparum; test: Antimalarial activity against chloroquine,pyrimethamine,mefloquine and atovaquine-resistant Plasmodium falciparum TM90-C2B infected in erythroctes incubated for 72 hrs by SYBR green 1 based spectrofluorometer; format: functional, organism-based
[8] = test system: Plasmodium falciparum; test: Antimalarial activity against chloroquine and pyrimethamine-resistant Plasmodium falciparum W2 infected in erythroctes incubated for 72 hrs by SYBR green 1 based spectrofluorometer; format: functional, organism-based; settings: for EC50: W2, 72 h
[9] = test system: Plasmodium berghei; test: Antimalarial activity against liver stage Plasmodium berghei sporozoites expressing luciferase infected in human HepG2 cells; format: functional, organism-based
[10] = test system: Plasmodium falciparum; test: Antimalarial activity against chloroquine-resistant Plasmodium falciparum K1 infected in erythroctes incubated for 72 hrs by SYBR green 1 based spectrofluorometer; format: functional, organism-based, Erythrocyte; settings: erythrocyte
[11] = test system: Plasmodium berghei; test: Antiplasmodial activity against Plasmodium berghei KBG-173 infected in male mouse assessed as inhibition of parasitemia at 50 mg/kg, po administered as single dose on day 1 post exposure and measured on day 6 post exposure relative to control; format: functional; settings: KBG-173, 72 h, time 3 day
[12] = test system: Plasmodium falciparum; test: Antimalarial activity against chloroquine-sensitive Plasmodium falciparum 3D7 infected in erythroctes incubated for 72 hrs by SYBR green 1 based spectrofluorometer; format: functional, organism-based, Erythrocyte; settings: erythrocyte
[13] = test system: Plasmodium berghei; test: Antiplasmodial activity against Plasmodium berghei KBG-173 infected in male mouse assessed as inhibition of parasitemia at 50 mg/kg, po administered as single dose on day 1 post exposure and measured on day 3 post exposure relative to control; format: functional; settings: KBG-173, 72 h, time 3 day

COc1cc(OC)c(NC(=O)[C@H]2c3ccccc3C(=O)N(CC(C)C)[C@@H]2c2cccs2)cc1Cl was tested, and the EC50 [1] was < 50 nM.
In the case of CCCOC(=O)C1=C(C)NC2=C(C(=O)CC(c3ccc(OC)c(OC)c3)C2)C1c1ccccc1F (centres undefined), the EC50 [2] is reported as 2610 nM, the Activity [3] is reported as 0% and the EC50 [1] is reported as < 50 nM. The EC50 [4] was 8.4 nM, the Activity [5] was “Active” and the “Ratio EC50” value [6] was 311.
CCOc1ccc(N(C(C)=O)C2=C(N(C)C)C(=O)c3ccccc3C2=O)cc1 was tested, and the EC50 [1] was < 50 nM.
For CCOC(=O)C1=C(C)NC2=C(C(=O)OC(c3ccc(OC)c(OC)c3)C2)C1c1ccccc1Cl (stereo in doubt; 3B), the Activity [7] was “Active”, the Activity [8] was “Active” and the Activity [9] was “inactive”.
CCOC(=O)C1=C(C)NC2=C(C(=O)OC(c3ccc(OC)c(OC)c3)C2)C1c1ccc(Cl)cc1 (stereo in doubt; 5B) was tested, and the Activity [7] was “Active” and the Activity [8] was “Active”.
With CCOC(=O)C1=C(C)NC2=C(C(=O)OC(c3ccc(OC)c(OC)c3)C2)C1c1ccccc1C (stereo in doubt; 6B) the Activity [7] was “Active” and the Activity [8] was “Active”.
For CCCC1=C(C(=O)OCC)C(c2ccccc2Cl)C2=C(CC(c3ccc(OC)c(OC)c3)OC2=O)N1 (stereo in doubt; 32B), the EC50 [10] was 9.2 nM, the EC50 [7] was < 100 nM and the EC50 [8] was < 100 nM. The inhibition in vivo at 50 mg/kg [11] was < 10%, the EC50 [12] was 16.1 nM and the inhibition in vivo at 50 mg/kg [13] was < 10%.
For CCOC(=O)C1=C(C)NC2=C(C(=O)CC(c3ccc(Cl)c(OC)c3)C2)C1c1ccccc1Cl (stereo in doubt; 39B), the Activity [9] was “inactive”.
CCCC1=C(C(=O)OCC)C(c2ccccc2Cl)C2=C(CC(c3ccc(OC)c(OC)c3)CC2=O)N1 (stereo in doubt; 43B) was tested, and the EC50 [10] was 1.3 nM, the EC50 [7] was 4.4 nM and the EC50 [8] was 3 nM. For the same compound, the inhibition in vivo at 50 mg/kg [11] was < 10%, the EC50 [12] was 0.8 nM and the inhibition in vivo at 50 mg/kg [13] was < 10%.
With COCC1=C(C(=O)OC)C(c2ccc(Cl)cc2C)C2=C(CC(c3ccc(OC)c(OC)c3)CC2=O)N1 (stereo in doubt; 51B) the Activity [9] was “inactive”.
